In PMC10050199 (Sensors and Actuators. B, Chemical, 2023):

Columns and labels:
SARS-CoV-2 SP [1] = target: T1, SARS-CoV-2 SP (Severe acute respiratory syndrome coronavirus 2, UniProt P0DTC2)
SARS-CoV-2 S1 = assay type: binding
SARS-CoV-2 SP [2] = target: T1, SARS-CoV-2 SP; remark: listed apart in the source

Row | Sequence | binding to SARS-CoV-2 SP (absorbance) (SARS-CoV-2 SP [1]) | binding to SARS-CoV-2 S1 (SARS-CoV-2 S1) | frequency of peptide sequence among sequenced phage monoclonals (SARS-CoV-2 SP [2])
1 | WNLDLSQWLPPM [P1-phage] | higher absorbance value and was significantly higher than that of the control | may also bind to SARS-CoV-2 S1 loosely | 
2 | WNLDLSQWLPPM [P1] |  |  | 16/30
